Reference: patent US8008354B2, “Death receptor sensitizing compounds and methods of use therefor” (Burnham Institute for Medical Research, priority 2006, dated 2011)
Structures can show the parent of a compound that is named as a salt. Where two headings read alike, the source gives them in different places.

What was measured:
PPC-1 cells [1] = assay: MTT cell viability of PPC-1 cells treated with compound with or without CH-11 anti-FAS antibody; assay type: cell-based; conditions: for IC50: read-out: LD50 (μM) PPCl; for LD50 (μM) (PPCl, CH-11): PPC-1 cells with CH-11 100 ng/mL, MTT 24 hours, LD50 = concentration that reduces cell viability by 50%
Description: FIGS. 2A-C. […] PPC-1 cells (1×10^4) were seeded in 96 well plates. The next day, cells were treated with increasing concentrations of the sensitizing compounds with (open squares) and without (closed squares) CH-11 antibody (100 ng/mL). Cell viability was measured 24 hours later by MTT assay. Cell viability is expressed as a mean percentage of untreated cells+SD (n=3). The Chembridge identification numbers of the compounds are provided.
High throughput screening. […] PPC-1 cells (1×10^4) were seeded overnight into 96 well, flat-bottom plates (Costar, Cambridge, Mass.) in 100 μL of medium containing 2.5% FCS. […] CH-11 antibody (100 ng/mL) was then added, and the cells were incubated for 24 hours before assessing cell viability by a 3-(4,5-Dimethylthiazol-2-yl)-2,5-diphenyltetrazolium Bromide (MTT) dye reduction assay (Sigma).
Cell death assays. […] Absorbance readings were plotted against a standard curve to derive the corresponding cell number, and cell viability was expressed as a percentage relative to untreated cells.

FLIP = FLIP protein levels by SDS-PAGE/immunoblotting; assay type: cell-based, human; conditions: PPC-1 cells
Description: FIG. 7. Effect of FAS-sensitizing compounds on levels of FLIP protein and DISC activation. (A) PPC-1 cells (2×10^5) were seeded into 35 mm plates and treated the next day with various FAS-sensitizing compounds (30 μM), with (+) or without (−) CH-11 antibody (100 ng/mL). As a positive control, cells were treated with CDDO (5 μM). Cell lysates were prepared 24 hours later, normalized for total protein content, and analyzed by SDS-PAGE/immunoblotting using antibodies specific for FLIP or a-tubulin. (B) PPC-1, OVCAR-3, T47D, MDA-MB-468 and DU 145 cells (2×10^5) were seeded into 35 mm plates and treated the next day with 5809354 (40 μM). Cell lysates were prepared 24 hours after treatment, normalized for total protein and analyzed by SDS-PAGE/immunoblotting using antibodies specific for FLIP or β-actin. (C) PPC-1, OVCAR-3, T47D, and DU 145 cells (2×10^5) were seeded into 35 mm plates and treated the next day with 5809354 (40 μM) (black bars) or buffer control (white bars). mRNA was extracted 24 hours after treatment. Levels of the long isoform of FLIP and GAPDH were detected by quantitative RT-PCR. Levels of FLIP were normalized for GAPDH expression and expressed as a mean fold change+SD over buffer treated cells. (D) PPC-1 cells (2×10^5) were seeded into 35 mm plates and treated the next day with various FAS-sensitizing compounds (30 μM) with (+) or without (−) CH-11 (100 ng/mL). Cell lysates were prepared 24 hours after treatment, normalized for total protein, and analyzed by SDS-PAGE/immunoblotting using antibodies specific for caspase-8 and β-actin.
(§1) FIG. 13. Small molecule down-regulation of FLIP sensitizes prostate cancer cells to anoikis. (A) PPC-1 cells were seeded overnight in adherent conditions and then treated with increasing concentrations of 5809354 for 16 hours. After incubation, cells were harvested. Total cellular RNA was extracted and mRNA levels of the long isoform of FLIP (FLIPL), the short isoform of FLIP (FLIPS), or rRNA levels of 18S were detected by real-time RT-PCR. Data were normalized using the ΔΔCT method and expressed as the mean±SEM percent of […] expression relative to untreated controls. (B) PPC-1 cells were cultured and treated as in panel A. Total cellular protein was isolated and analyzed by SDS-PAGE immunoblotting using anti-FLIP and anti-Actin antibodies. (C) PPC-1 cells were seeded overnight in adherent conditions and then exposed to increasing concentrations of 5809354 in the presence or absence of Fas-activating antibody (CH-11, 100 ng/mL). Thirty hours after incubation, cell viability was determined using the MTS assay. Data represents the mean±SEM of percent of viable cells. (D) PPC-1 cells were seeded overnight in adherent or suspension conditions and then treated with increasing concentrations of 5809354 for 30 hours. After incubation, apoptosis was measured by flow cytometry to detect cell surface annexin V expression and PI. Data represents the mean±SEM of percent of viable cells. (E) Cells were harvested, fixed, stained with DAPI, and nuclear morphology analyzed by fluorescence microscopy. Arrowheads refer to fragmented nuclei indicative of apoptosis. […] Thirty hours after incubation, cells were harvested and equal volumes plated in a colony formation assay. One week later, cells were stained with methylene blue and the number of colonies counted. Data represents the mean ±SEM percent of colonies relative to untreated controls.
Immunoblot analysis. Protein extracts were obtained by washing cells with phosphate-buffered saline (PBS) [pH 7.4] and suspending the cells in lysis buffer [10 mM Tris (pH 7.4), 150 mM NaCl, 0.1% Triton X-100, 0.5% sodium deoxycholate, and 5 mM EDTA] containing protease inhibitors (Complete tablets; Roche, Indianapolis, Ind.). Immunoblot assays were performed as described in Carter et al. (2005). […]

PPC-1 cells [2] = assay: MTS viability of adherent PPC-1 cells with or without CH-11, thirty hours; assay type: cell-based, human; conditions: CH-11 100 ng/mL
Description: FIG. 13. Small molecule down-regulation of FLIP sensitizes prostate cancer cells to anoikis. (A) PPC-1 cells were seeded overnight in adherent conditions and then treated with increasing concentrations of 5809354 for 16 hours. After incubation, cells were harvested. Total cellular RNA was extracted and mRNA levels of the long isoform of FLIP (FLIPL), the short isoform of FLIP (FLIPS), or rRNA levels of 18S were detected by real-time RT-PCR. Data were normalized using the ΔΔCT method and expressed as the mean±SEM percent of […] expression relative to untreated controls. (B) PPC-1 cells were cultured and treated as in panel A. Total cellular protein was isolated and analyzed by SDS-PAGE immunoblotting using anti-FLIP and anti-Actin antibodies. […] Thirty hours after incubation, cell viability was determined using the MTS assay. […] After incubation, apoptosis was measured by flow cytometry to detect cell surface annexin V expression and PI. […] (E) Cells were harvested, fixed, stained with DAPI, and nuclear morphology analyzed by fluorescence microscopy. […] One week later, cells were stained with methylene blue and the number of colonies counted. […]
Cell viability apoptosis, colony formation, and caspase activation assays. Cell viability was assessed using the MTS reduction assay (Promega, Madison, Wis., USA) according to the manufacturer's protocols and as described in Schimmer et al. (2006). […]

PPC-1 cells [3] = assay: Anoikis of PPC-1 cells in suspension versus adherent conditions (annexin V/PI, DAPI, colony formation); assay type: cell-based, human
Description: FIG. 12. Depletion of endogenous FLIP levels by siRNA sensitizes malignant cells to anoikis. (A) PPC-1 cells were seeded in adherent conditions overnight and then transfected with 25 nM anti-FLIP siRNA (siFLIP) or control luciferase siRNA (siCtrl). Thirty hours after transfection, cells were harvested, total protein isolated and analyzed by SDS-PAGE immunoblotting using anti-FLIP and anti-actin antibodies. (B) PPC-1 cells were transfected with increasing concentrations of siFLIP or siCtrl. After transfection, cells were treated with CH-11 Fas activating antibody (100 ng/ml). Thirty hours after incubation, cells were harvested and apoptosis measured by flow cytometry to detect cell surface annexin V expression and PI uptake. Data represents the mean±SEM percent of viable cells. (C) PPC-1 cells were transfected with increasing concentrations of siFLIP or siCtrl. After transfection, cells were subcultured under suspension conditions for 30 hours and then harvested. Apoptosis was measured by flow cytometry to detect cell surface annexin V expression and PI uptake. Data represents the mean±SEM of percent of viable cells. (D) Equal volumes of PPC-1 cells from panel C were replated under adherent conditions to permit clonogenic growth. One week after replating, cells were stained with methylene blue and the number of colonies counted. Data represents the mean±SEM percent of colonies compared to untreated controls.
as §1
FIG. 15. 5809354 sensitizes cells to anoikis through a caspase 8 dependent mechanism. (A) PPC-1 cells (5×10^4) were cultured under suspension conditions overnight and then treated with 5809354 in the presence or absence of the pan-caspase inhibitor z-VAD-fink (100 μM). Thirty hours after incubation, anoikis was determined by flow cytometry to detect cell surface annexin V expression and PI uptake. Data represents the mean±SEM percent of viable cells or colonies compared to untreated controls. (B) PPC-1 cells (5×10^4) were cultured in suspension conditions overnight and then treated with 5809354 (60 μM). […]

[4] = Homo sapiens, PPC-1, 24 h, PPC-1 cells, compound alone without CH-11, MTT 24 hours

| SMILES | IC50 (PPC-1 cells [1]; [4]) [µM] | LD50 (μM) (PPCl, CH-11) (PPC-1 cells [1]) | also measured |
| --- | --- | --- | --- |
| Br.CC(C)(C)c1cc(C(=O)Cn2c(=N)n(Cc3ccccc3)c3ccccc32)cc(C(C)(C)C)c1O [compound 5657593, 2-(3-benzyl-2-imino-2,3-dihydro-1H-benzo[d]imidazol-1-yl)-1-(3,5-di-tert-butyl-4-hydroxyphenyl)ethanone hydrobromide] | 9.1 | 3.4 µM |  |
| CCOCCCNC(=O)CCCOc1ccc(Cl)cc1C [compound 7271570, (4-(4-chloro-2-methylphenoxy))-N-(3-ethoxypropyl)-butanamide] |  |  | FLIP protein expression (FLIP; Example 2, increasing concentrations, 16 hours): failed to decrease FLIP levels; viability in the presence of Fas-activating antibody (CH-11) (PPC-1 cells [2]): failed to sensitize; sensitization to anoikis (PPC-1 cells [3]; suspension conditions, 30 hours): failed to sensitize; colony formation after suspension culture (PPC-1 cells [3]; thirty hours in suspension, colonies counted one week later): inactive |
| O=C(CCc1ccccc1)Nc1ccc(Cl)cc1C(F)(F)F [N-[4-chloro-2-(trifluoromethyl)phenyl]-3-phenylpropanamide] | > 100 | >100 µM |  |
| CC(C)(C)c1cc(C(=O)Cn2c(=N)n(CCN3CCCCC3)c3ccccc32)cc(C(C)(C)C)c1O.Cl [compound 5529457, 1-(3,5-di-tert-butyl-4-hydroxyphenyl)-2-(2-imino-3-(2-(piperidin-1-yl)ethyl)-2,3-dihydro-1H-benzo[d]imidazol-1-yl)ethanone hydrochloride] | 7.5 | 3.7 µM |  |
| Br.Cc1ccc(Cn2c(=N)n(CC(=O)c3cc(C(C)(C)C)c(O)c(C(C)(C)C)c3)c3ccccc32)cc1 [compound 5651311, 1-(3,5-di-tert-butyl-4-hydroxyphenyl)-2-(2-imino-3-(4-methylbenzyl)-2,3-dihydro-1H-benzo[d]imidazol-1-yl)ethanone hydrobromide] | 19 | 9 µM |  |
| O=C(Cc1ccc(Cl)cc1)N1CCN(C/C=C/c2ccccc2)CC1 [compound 5703229, 1-[(4-chlorophenyl)acetyl]-4-[(2e)3-phenylprop-2-enyl]piperazine] |  | 34+4 μM | IC50 (PPC-1 cells [1]; Homo sapiens, PPC-1, 24 h): 50 µM |
| C/C(CC(=O)Nc1ccc(Cl)c(C(F)(F)F)c1)=N\NC(=O)c1cnccn1 [N-(4-Chloro-3-trifluoromethyl-phenyl)-3-[(pyrazine-2-carbonyl)-hydrazono]-butyramide] | 67 ± 3 | 11 ± 3 µM |  |
| Cn1c(=N)n(CC(=O)c2cc(C(C)(C)C)c(O)c(C(C)(C)C)c2)c2ccccc21 [compound 5541203, 1-(3,5-di-tert-butyl-4-hydroxyphenyl)-2-(2-imino-3-methyl-2,3-dihydro-1H-benzo[d]imidazol-1-yl)ethanone hydrobromide] | 45 | 25.7 µM | levels of FLIP protein (FLIP; 30 μM, with or without CH-11, 24 hours, long isoform): had little effect; EC50 (PPC-1 cells [1]; Homo sapiens, PPC-1, with anti-FAS antibody, read-out: EC50 as a FAS-sensitizer in PPC1 cells): 25.7 µM; IC50 (PPC-1 cells [1]; PPC-1 cells, compound alone without CH-11, MTT 24 hours; hydrobromide)): 45.4 µM |
| O=C(CCc1ccccc1)Nc1ccc(Cl)c(C(F)(F)F)c1 [N-[4-chloro-3-(trifluoromethyl)-phenyl]-3-phenyl-proionamide] | 85 ± 3 | 11 ± 1 µM |  |
| O=C(CCc1ccccc1)Nc1cc(C(F)(F)F)ccc1Cl [N-[2-chloro-5-(trifluoromethyl)phenyl]-3-phenylpropanamide] | > 100 | >100 µM |  |
| O=C(Nc1ccc(Cl)c(C(F)(F)F)c1)c1cccs1 [N-[4-chloro-3-(trifluoromethyl)phenyl]-2-thiophenecarboxamide] | 96 ± 1 | 35 ± 11 µM |  |
| CC(=O)CC(=O)Nc1cc(C(F)(F)F)ccc1Cl [N-[2-chloro-5-(trifluoromethyl)phenyl]-3-oxobutanamide] | 75 ± 1 | 65 ± 5 µM |  |
